Laboratory results as given in patent US20060083680A1, “Diphenyl ether derivatives and their use for imaging serotonin transporters” (The Trustees of the University of Pennsylvania, priority 2004, published 2006).
Values joined by “and” are separate entries in the source; they are usually repeats but may differ in a detail not shown here. Equal entries are not always repeated.

Experiment: Biodistribution in rats after iv injection (organs)
Assay type: in vivo
Settings: for Biodistribution Blood / Biodistribution Brain / Biodistribution Heart / Biodistribution Kidney / Biodistribution Liver / Biodistribution Lung / Biodistribution Muscle / Biodistribution Skin / Biodistribution Spleen / Biodistribution Thyroid: iv
Description: Biodistribution in rats: Three rats per group were used for each biodistribution study. While under ether anesthesia, 0.2 mL of a saline solution containing 10 μCi of radioactive tracer was injected into the femoral vein. The rats were sacrificed at the time indicated by cardiac excision while under ether anesthesia. Organs of interest were removed and weighed, and the radioactivity was counted. The percent dose per organ was calculated by a comparison of the tissue counts to counts of 1% of the initial dose (100 times diluted aliquots of the injected material) measured at the same time.

For `CN(C)Cc1ccccc1Oc1ccc([125I])cc1N` [[^125I]4, [^125I][^123I]2-(2-(Dimethylaminomethyl)phenoxy)-5-iodophenylamine], the brain uptake (2 min post-injection) was 1.77 % dose and 1.77±0.07 % dose, the “Biodistribution Blood” value (2 min) was 5.75 ± 0.54 % dose/organ and the “Biodistribution Brain” value (2 min) was 1.77 ± 0.07 % dose/organ. For the same compound, the “Biodistribution Heart” value (2 min) was 1.51 ± 0.13 % dose/organ, the “Biodistribution Kidney” value (2 min) was 4.27 ± 0.90 % dose/organ and the “Biodistribution Liver” value (2 min) was 5.71 ± 0.88 % dose/organ. For the same compound, the “Biodistribution Lung” value (2 min) was 17.2 ± 2.32 % dose/organ, the “Biodistribution Muscle” value (2 min) was 25.9 ± 4.82 % dose/organ and the “Biodistribution Skin” value (2 min) was 4.45 ± 0.52 % dose/organ. The “Biodistribution Spleen” value (2 min) was 0.44 ± 0.08 % dose/organ, the “Biodistribution Thyroid” value (2 min) was 0.10 ± 0.02 % dose/organ and the “Biodistribution Blood” value (30 min) was 4.56 ± 0.20 % dose/organ. For the same compound, the “Biodistribution Brain” value (30 min) was 2.12 ± 0.15 % dose/organ, the “Biodistribution Heart” value (30 min) was 0.32 ± 0.04 % dose/organ and the “Biodistribution Kidney” value (30 min) was 2.67 ± 0.48 % dose/organ. The “Biodistribution Liver” value (30 min) was 7.10 ± 0.66 % dose/organ, the “Biodistribution Lung” value (30 min) was 3.56 ± 0.96 % dose/organ and the “Biodistribution Muscle” value (30 min) was 18.1 ± 0.55 % dose/organ. For the same compound, the “Biodistribution Skin” value (30 min) was 11.3 ± 0.78 % dose/organ, the “Biodistribution Spleen” value (30 min) was 0.84 ± 0.05 % dose/organ and the “Biodistribution Thyroid” value (30 min) was 0.15 ± 0.04 % dose/organ. The “Biodistribution Blood” value (60 min) was 3.89 ± 0.28 % dose/organ, the “Biodistribution Brain” value (60 min) was 1.74 ± 0.08 % dose/organ and the “Biodistribution Heart” value (60 min) was 0.20 ± 0.01 % dose/organ. For the same compound, the “Biodistribution Kidney” value (60 min) was 1.67 ± 0.21 % dose/organ, the “Biodistribution Liver” value (60 min) was 5.79 ± 0.70 % dose/organ and the “Biodistribution Lung” value (60 min) was 1.79 ± 0.06 % dose/organ. The “Biodistribution Muscle” value (60 min) was 12.9 ± 0.84 % dose/organ, the “Biodistribution Skin” value (60 min) was 13.9 ± 1.00 % dose/organ and the “Biodistribution Spleen” value (60 min) was 0.47 ± 0.02 % dose/organ. The “Biodistribution Thyroid” value (60 min) was 0.41 ± 0.11 % dose/organ, the “Biodistribution Blood” value (120 min) was 3.15 ± 0.44 % dose/organ and the “Biodistribution Brain” value (120 min) was 1.08 ± 0.06 % dose/organ. The “Biodistribution Heart” value (120 min) was 0.13 ± 0.01 % dose/organ, the “Biodistribution Kidney” value (120 min) was 1.24 ± 0.15 % dose/organ and the “Biodistribution Liver” value (120 min) was 4.90 ± 0.38 % dose/organ. The “Biodistribution Lung” value (120 min) was 0.88 ± 0.04 % dose/organ, the “Biodistribution Muscle” value (120 min) was 9.18 ± 0.65 % dose/organ and the “Biodistribution Skin” value (120 min) was 12.5 ± 2.14 % dose/organ. The “Biodistribution Spleen” value (120 min) was 0.27 ± 0.01 % dose/organ, the “Biodistribution Thyroid” value (120 min) was 0.96 ± 0.06 % dose/organ and the “Biodistribution Blood” value (240 min) was 3.12 ± 0.32 % dose/organ. The “Biodistribution Brain” value (240 min) was 0.33 ± 0.02 % dose/organ, the “Biodistribution Heart” value (240 min) was 0.08 ± 0.02 % dose/organ and the “Biodistribution Kidney” value (240 min) was 0.61 ± 0.09 % dose/organ. For the same compound, the “Biodistribution Liver” value (240 min) was 3.52 ± 0.20 % dose/organ, the “Biodistribution Lung” value (240 min) was 0.37 ± 0.03 % dose/organ and the “Biodistribution Muscle” value (240 min) was 6.27 ± 0.06 % dose/organ. For the same compound, the “Biodistribution Skin” value (240 min) was 12.6 ± 0.48 % dose/organ, the “Biodistribution Spleen” value (240 min) was 0.13 ± 0.02 % dose/organ and the “Biodistribution Thyroid” value (240 min) was 2.34 ± 1.16 % dose/organ. The “Biodistribution Blood” value (6 hrs) was 3.29 ± 0.27 % dose/organ, the “Biodistribution Brain” value (6 hrs) was 0.11 ± 0.01 % dose/organ and the “Biodistribution Heart” value (6 hrs) was 0.08 ± 0.00 % dose/organ. The “Biodistribution Kidney” value (6 hrs) was 0.55 ± 0.07 % dose/organ, the “Biodistribution Liver” value (6 hrs) was 3.59 ± 0.23 % dose/organ and the “Biodistribution Lung” value (6 hrs) was 0.25 ± 0.01 % dose/organ. For the same compound, the “Biodistribution Muscle” value (6 hrs) was 5.01 ± 0.42 % dose/organ, the “Biodistribution Skin” value (6 hrs) was 15.5 ± 1.50 % dose/organ and the “Biodistribution Spleen” value (6 hrs) was 0.11 ± 0.01 % dose/organ. For the same compound, the “Biodistribution Thyroid” value (6 hrs) was 2.68 ± 0.66 % dose/organ, the “Biodistribution Blood” value (11 hrs) was 2.52 ± 0.47 % dose/organ and the “Biodistribution Brain” value (11 hrs) was 0.02 ± 0.00 % dose/organ. The “Biodistribution Heart” value (11 hrs) was 0.06 ± 0.00 % dose/organ, the “Biodistribution Kidney” value (11 hrs) was 0.40 ± 0.10 % dose/organ and the “Biodistribution Liver” value (11 hrs) was 2.64 ± 0.19 % dose/organ. For the same compound, the “Biodistribution Lung” value (11 hrs) was 0.16 ± 0.00 % dose/organ, the “Biodistribution Muscle” value (11 hrs) was 4.01 ± 0.85 % dose/organ and the “Biodistribution Skin” value (11 hrs) was 10.9 ± 4.62 % dose/organ. The “Biodistribution Spleen” value (11 hrs) was 0.09 ± 0.01 % dose/organ, the “Biodistribution Thyroid” value (11 hrs) was 5.15 ± 1.49 % dose/organ and the “Biodistribution Blood” value (24 hrs) was 0.70 ± 0.06 % dose/organ. For the same compound, the “Biodistribution Brain” value (24 hrs) was 0.01 ± 0.00 % dose/organ, the “Biodistribution Heart” value (24 hrs) was 0.02 ± 0.00 % dose/organ and the “Biodistribution Kidney” value (24 hrs) was 0.17 ± 0.02 % dose/organ. The “Biodistribution Liver” value (24 hrs) was 1.83 ± 0.07 % dose/organ.
